Experiments:
Assay in all cases: combination Emax (second highest fraction inhibited in the dose matrix, 72 h); higher = more inhibition; extreme values may be limits of the assay
[1] = tested on: MOLT-4 (T-Lymphoblastic Leukemia)
How it was run: (§1)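 Cell lines grown in DMEM/F12 or RPMI with 10% FBS were plated in 1536-well plates and held 24 hours at 37°C, 5% CO2 before 72 hours of exposure to two-drug dose matrices, with DMSO typically at 0.2%. CellTiter-Glo 2.0 luminescence gave viability, which was converted to inhibition. Vehicle wells were set to 0 and blank wells to 1. Combination Emax is the second-highest inhibition in the matrix, and Bliss excess is the observed combination effect minus the expected EA + EB − EA·EB, where EA and EB are the single-agent effects.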

[2] = tested on: KGN (Other Solid Carcinomas)
How it was run: as §1

[3] = tested on: MDA-MB-453 (Breast Carcinoma)
How it was run: as §1

[4] = tested on: MOG-G-UVW (Low Grade Glioma)
How it was run: as §1

SK-N-AS (Neuroblastoma) = tested on: SK-N-AS (Neuroblastoma)
How it was run: as §1

[5] = tested on: ME-180 (Cervical Carcinoma)
How it was run: as §1

[6] = tested on: EFO-21 (Ovarian Carcinoma)
How it was run: as §1

[7] = tested on: SKN (Other Solid Carcinomas)
How it was run: as §1

Structure (SMILES) | combination Emax [1] | combination Emax [2] | combination Emax [3] | combination Emax [4] | combination Emax (SK-N-AS (Neuroblastoma)) | combination Emax [5] | combination Emax [6] | combination Emax [7]
O=C(c1cc(Cc2n[nH]c(=O)c3ccccc23)ccc1F)N1CCN(C(=O)C2CC2)CC1 [Olaparib] + CC1(C)CCC(CN2CCN(c3ccc(C(=O)NS(=O)(=O)c4ccc(NCC5CCOCC5)c([N+](=O)[O-])c4)c(Oc4cnc5[nH]ccc5c4)c3)CC2)=C(c2ccc(Cl)cc2)C1 [Venetoclax] (first compound max 10 µM, 7x7, partner max 1 µM) | 0.7 | 0.292 | 0.104 | 0.257 | 0.106 | 0.14 | 0.0952 | 0.104
Cc1c2c(nn1C)CSCc1cc(n(C)n1)CSc1cc(c3ccccc3c1)OCCCc1c(C(=O)O)n(C)c3c-2c(Cl)ccc13 [AZD5991] + CC(=O)O[C@H]1C(=O)[C@@]2(C)[C@H]([C@H](OC(=O)c3ccccc3)[C@]3(O)C[C@H](OC(=O)[C@H](O)[C@@H](NC(=O)c4ccccc4)c4ccccc4)C(C)=C1C3(C)C)[C@]1(OC(C)=O)CO[C@@H]1C[C@@H]2O [Paclitaxel] (first compound max 1 µM, 7x7, partner max 3 µM) | 0.991 | 0.916 | 0.92 | 0.986 | 0.83 | 0.7 | 0.368 | 0.694
O=C(c1cc(Cc2n[nH]c(=O)c3ccccc23)ccc1F)N1CCN(C(=O)C2CC2)CC1 [Olaparib] + COc1nnc2ccc(N3CCC(c4ccc(OCCN5CCN(C)C(=O)[C@H]5C)cc4)CC3)nn12 [AZD5153] (first compound max 10 µM, 7x7, partner max 1 µM) | 0.591 | 0.712 | 0.664 | 0.641 | 0.326 | 0.424 | 0.353 | 0.553
C[C@@H](Oc1cc(-c2cnn(C3CCNCC3)c2)cnc1N)c1c(Cl)ccc(F)c1Cl [Crizotinib] + CC1=C(C(=CC=C1)Cl)NC(=O)C2=CN=C(S2)NC3=CC(=NC(=N3)C)N4CCN(CC4)CCO [Dasatinib] (first compound max 10 µM, 7x7, partner max 2 µM) | 0.826 | 0.978 | 0.214 | 0.928 | 0.491 | 0.644 | 0.701 | 0.866
C=CCn1c(=O)c2cnc(Nc3ccc(N4CCN(C)CC4)cc3)nc2n1-c1cccc(C(C)(C)O)n1 [AZD1775] + CCc1c2c(nc3ccc(O)cc13)-c1cc3c(c(=O)n1C2)COC(=O)[C@]3(O)CC [SN-38] (first compound max 1 µM, partner max 0.3 µM) | 1 | 0.833 | 0.696 | 0.945 | 0.844 | 0.973 | 0.466 | 0.756
C[C@@H](Oc1cc(-c2cnn(C3CCNCC3)c2)cnc1N)c1c(Cl)ccc(F)c1Cl [Crizotinib] + Cn1cnc2c(F)c(Nc3ccc(Br)cc3Cl)c(C(=O)NOCCO)cc21 [Selumetinib] (first compound max 10 µM, 7x7, partner max 10 µM) | 0.815 | 0.816 | 0.15 | 0.77 | 0.585 | 0.269 | 0.224 | 0.368
Cc1c2c(nn1C)CSCc1cc(n(C)n1)CSc1cc(c3ccccc3c1)OCCCc1c(C(=O)O)n(C)c3c-2c(Cl)ccc13 [AZD5991] + CS(=O)(=O)CCNCc1ccc(-c2ccc3ncnc(Nc4ccc(OCc5cccc(F)c5)c(Cl)c4)c3c2)o1 [Lapatinib] (first compound max 1 µM, 7x7, partner max 10 µM) | 0.604 | 0.454 | 0.527 | 0.311 | 0.395 | 0.492 | 0.277 | 0.223
C[C@@H](Nc1cc(F)cc(F)c1)c1cc(C(=O)N(C)C)cc2c(=O)cc(N3CCOCC3)oc12 [AZD8186] + CC(=O)c1c(C)c2cnc(Nc3ccc(N4CCNCC4)cn3)nc2n(C2CCCC2)c1=O [Palbociclib] (first compound max 10 µM, 7x7, partner max 10 µM) | 0.661 | 0.798 | 0.578 | 0.718 | 0.281 | 0.391 | 0.325 | 0.665
Cc1nc(-c2cn3c(n2)-c2ccc(-c4cnn(C(C)(C)C(N)=O)c4)cc2OCC3)n(C(C)C)n1 [Taselisib] + O=C(Nc1ccc2[nH]nc(-c3ccncc3)c2c1)[C@@H]1CCN(CC(=O)N2CCN(c3ccc(-c4ncccn4)cc3)CC2)C1 [SCH772984] (first compound max 10 µM, 7x7, partner max 5 µM) | 0.837 | 0.816 | 0.721 | 0.884 | 0.494 | 0.732 | 0.409 | 0.735
C=CCn1c(=O)c2cnc(Nc3ccc(N4CCN(C)CC4)cc3)nc2n1-c1cccc(C(C)(C)O)n1 [AZD1775] + Nc1ccn([C@@H]2O[C@H](CO)[C@@H](O)C2(F)F)c(=O)n1 [Gemcitabine] (first compound max 1 µM, partner max 0.3 µM) | 1 | 0.892 | 0.539 | 0.938 | 0.704 | 0.94 | 0.482 | 0.633
C[C@@H](Nc1cc(F)cc(F)c1)c1cc(C(=O)N(C)C)cc2c(=O)cc(N3CCOCC3)oc12 [AZD8186] + C1CN(CCC1(C(=O)N[C@@H](CCO)C2=CC=C(C=C2)Cl)N)C3=NC=NC4=C3C=CN4 [AZD5363] (first compound max 10 µM, 7x7, partner max 10 µM) | 0.437 | 0.556 | 0.573 | 0.621 | 0.135 | 0.579 | 0.235 | 0.557
CC1(C)CCC(CN2CCN(c3ccc(C(=O)NS(=O)(=O)c4ccc(NCC5CCOCC5)c([N+](=O)[O-])c4)c(Oc4cnc5[nH]ccc5c4)c3)CC2)=C(c2ccc(Cl)cc2)C1 [Venetoclax] + CS(=O)(=O)CCNCc1ccc(-c2ccc3ncnc(Nc4ccc(OCc5cccc(F)c5)c(Cl)c4)c3c2)o1 [Lapatinib] (first compound max 1 µM, 7x7, partner max 10 µM) | 0.502 | 0.4 | 0.419 | 0.213 | 0.118 | 0.427 | 0.153 | 0.196
CN(CCO)CC[C@H](CSc1ccccc1)Nc1ccc(S(=O)(=O)NC(=O)c2ccc(N3CCC([C@@H](O)c4ccccc4-c4ccc(Cl)cc4)CC3)cc2)cc1S(=O)(=O)C(F)(F)F [AZD4320] + CS(=O)(=O)CCNCc1ccc(-c2ccc3ncnc(Nc4ccc(OCc5cccc(F)c5)c(Cl)c4)c3c2)o1 [Lapatinib] (first compound max 1 µM, 7x7, partner max 10 µM) | 1 | 0.494 | 0.548 | 0.298 | 0.197 | 0.7 | 0.491 | 0.759
C[C@@H]1COCCN1c1cc(C2([S@](C)(=N)=O)CC2)nc(-c2ccnc3[nH]ccc23)n1 [AZD6738] + Nc1ccn([C@@H]2O[C@H](CO)[C@@H](O)C2(F)F)c(=O)n1 [Gemcitabine] (first compound max 10 µM, 7x7, partner max 0.3 µM) | 1 | 0.969 | 0.678 | 0.967 | 0.801 | 0.913 | 0.625 | 0.71
CS(=O)(=O)CCNCc1ccc(-c2ccc3ncnc(Nc4ccc(OCc5cccc(F)c5)c(Cl)c4)c3c2)o1 [Lapatinib] + Cn1cnc2c(F)c(Nc3ccc(Br)cc3Cl)c(C(=O)NOCCO)cc21 [Selumetinib] (first compound max 10 µM, 7x7, partner max 10 µM) | 0.501 | 0.535 | 0.389 | 0.469 | 0.441 | 0.476 | 0.331 | 0.341
O=C(c1cc(Cc2n[nH]c(=O)c3ccccc23)ccc1F)N1CCN(C(=O)C2CC2)CC1 [Olaparib] + CN(CC[C@H](CSC1=CC=CC=C1)NC2=C(C=C(C=C2)S(=O)(=O)NC(=O)C3=CC=C(C=C3)N4CCC(CC4)[C@H](C5=CC=CC=C5C6=CC=C(C=C6)Cl)O)S(=O)(=O)C(F)(F)F)CCO [AZD4320] (first compound max 10 µM, 7x7, partner max 1 µM) | 0.977 | 0.298 | 0.224 | 0.344 | 0.112 | 0.18 | 0.172 | 0.174
C[C@@H]1COCCN1c1cc(C2([S@](C)(=N)=O)CC2)nc(-c2ccnc3[nH]ccc23)n1 [AZD6738] + C1CC(C1)(C(=O)[O-])C(=O)[O-].N.N.[Pt+2] [Carboplatin] (first compound max 10 µM, 7x7, partner max 10 µM) | 0.984 | 0.79 | 0.66 | 0.723 | 0.69 | 0.663 | 0.263 | 0.427
Cc1c2c(nn1C)CSCc1cc(n(C)n1)CSc1cc(c3ccccc3c1)OCCCc1c(C(=O)O)n(C)c3c-2c(Cl)ccc13 [AZD5991] + Nc1ccn([C@@H]2O[C@H](CO)[C@@H](O)C2(F)F)c(=O)n1 [Gemcitabine] (first compound max 1 µM, 7x7, partner max 0.3 µM) | 0.992 | 0.9 | 0.731 | 0.857 | 0.717 | 0.754 | 0.379 | 0.582
O=C(c1cc(Cc2n[nH]c(=O)c3ccccc23)ccc1F)N1CCN(C(=O)C2CC2)CC1 [Olaparib] + Cc1c2c(nn1C)CSCc1cc(n(C)n1)CSc1cc(c3ccccc3c1)OCCCc1c(C(=O)O)n(C)c3c-2c(Cl)ccc13 [AZD5991] (first compound max 10 µM, 7x7, partner max 1 µM) | 0.878 | 0.162 | 0.341 | 0.408 | 0.258 | 0.1 | 0.117 | 0.126

— the supplement of paper PMC11061612
